Like-named read-outs stand apart in the source and are kept apart here.
Legend:
S. aureus gyrase [1] = target: T1, S. aureus gyrase (Staphylococcus aureus, UniProt P0A0K8+P20831)
[2] = system: negatively supercoiled pBR322 DNA; assay: DNA cleavage control without gyrase; details: 200 μM gepotidacin, 3 h incubation, no gyrase
[3] = target: S. aureus gyrase-DNA cleavage complexes (Staphylococcus aureus, UniProt P0A0K8+P20831); assay: Stability; details: 5 μM gepotidacin, 20-fold dilution into buffer lacking divalent metal ion
S. aureus gyrase [4] = target: T1, S. aureus gyrase; assay: DNA cleavage competition assay, gepotidacin vs moxifloxacin; assay type: biochemical; details: 100 μM gepotidacin plus 25 μM moxifloxacin

T1 sequence (P0A0K8 whole entry): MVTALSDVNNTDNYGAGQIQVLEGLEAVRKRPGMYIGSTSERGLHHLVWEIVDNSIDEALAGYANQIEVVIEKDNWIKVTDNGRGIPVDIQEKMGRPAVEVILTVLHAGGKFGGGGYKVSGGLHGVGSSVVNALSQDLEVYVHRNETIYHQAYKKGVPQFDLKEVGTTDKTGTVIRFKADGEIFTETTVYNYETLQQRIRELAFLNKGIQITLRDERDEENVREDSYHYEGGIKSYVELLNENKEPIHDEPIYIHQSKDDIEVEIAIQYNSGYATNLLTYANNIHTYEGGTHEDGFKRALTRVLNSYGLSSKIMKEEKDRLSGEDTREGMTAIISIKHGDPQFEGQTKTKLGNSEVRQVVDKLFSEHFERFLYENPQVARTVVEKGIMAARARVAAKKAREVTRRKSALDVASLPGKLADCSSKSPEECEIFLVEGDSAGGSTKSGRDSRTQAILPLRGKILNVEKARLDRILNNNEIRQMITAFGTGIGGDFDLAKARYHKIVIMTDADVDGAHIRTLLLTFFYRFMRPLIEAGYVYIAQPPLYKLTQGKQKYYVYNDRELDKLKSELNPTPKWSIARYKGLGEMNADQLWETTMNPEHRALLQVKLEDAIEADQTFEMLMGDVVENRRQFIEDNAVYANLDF
T1 sequence (P20831 whole entry): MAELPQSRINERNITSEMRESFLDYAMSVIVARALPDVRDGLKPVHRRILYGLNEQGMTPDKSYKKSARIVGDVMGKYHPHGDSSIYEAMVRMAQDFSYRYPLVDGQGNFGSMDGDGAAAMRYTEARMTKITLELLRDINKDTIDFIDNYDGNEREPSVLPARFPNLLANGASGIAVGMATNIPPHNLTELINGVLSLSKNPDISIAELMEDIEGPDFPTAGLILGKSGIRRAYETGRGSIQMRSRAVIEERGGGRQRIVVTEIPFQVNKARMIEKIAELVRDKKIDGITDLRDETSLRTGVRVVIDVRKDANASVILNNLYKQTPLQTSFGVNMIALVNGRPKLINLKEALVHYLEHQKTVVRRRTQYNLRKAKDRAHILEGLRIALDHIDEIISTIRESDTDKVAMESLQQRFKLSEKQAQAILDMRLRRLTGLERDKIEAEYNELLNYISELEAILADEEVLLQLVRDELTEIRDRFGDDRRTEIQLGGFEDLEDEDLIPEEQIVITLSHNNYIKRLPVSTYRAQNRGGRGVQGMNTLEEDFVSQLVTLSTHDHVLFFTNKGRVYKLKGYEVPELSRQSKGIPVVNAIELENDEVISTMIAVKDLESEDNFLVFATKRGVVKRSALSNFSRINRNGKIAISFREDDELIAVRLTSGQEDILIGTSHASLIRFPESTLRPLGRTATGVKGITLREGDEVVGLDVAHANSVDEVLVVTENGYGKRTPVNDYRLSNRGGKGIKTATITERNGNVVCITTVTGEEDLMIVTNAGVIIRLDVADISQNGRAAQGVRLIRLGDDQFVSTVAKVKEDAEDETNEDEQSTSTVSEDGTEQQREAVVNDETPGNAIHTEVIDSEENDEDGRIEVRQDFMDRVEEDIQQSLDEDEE
S. aureus gyrase-DNA cleavage complexes, sequence (P20831 whole entry): as above
S. aureus gyrase-DNA cleavage complexes, sequence (P0A0K8 whole entry): as the sequence (P0A0K8 whole entry) above

| Compound | fall in potency with positively vs negatively supercoiled substrates (S. aureus gyrase [1]; double-stranded breaks) | type of DNA breaks at high concentration (S. aureus gyrase [1]; 200 μM, time course 6 times longer than standard) | gyrase-mediated double-stranded DNA cleavage (S. aureus gyrase [1]; 1.5 mM ATP) | type of DNA breaks created (S. aureus gyrase [1]; 5 or 200 μM, negatively supercoiled DNA) | effect on double-stranded DNA cleavage in the presence of Ca2+ (S. aureus gyrase [1]; MgCl2 replaced by CaCl2, increasing gepotidacin concentrations) | gyrase-mediated double-stranded DNA breaks (S. aureus gyrase [1]; high gepotidacin concentration, long cleavage times, or presence of ATP) | levels of single-stranded breaks, positively vs negatively supercoiled plasmid (S. aureus gyrase [1]; lower with positively supercoiled plasmid) | single-stranded DNA breaks, share of the initial substrate (S. aureus gyrase [1]; negatively supercoiled plasmid, low micromolar concentrations) | gyrase-mediated double-stranded DNA breaks (S. aureus gyrase [1]; positively supercoiled DNA) | DNA cleavage when gyrase was left out [2] | stability of gyrase-DNA cleavage complexes [3] | drop in levels of moxifloxacin-induced double-stranded breaks (S. aureus gyrase [4]) |
| --- | --- | --- | --- | --- | --- | --- | --- | --- | --- | --- | --- | --- |
| COc1c(N2C[C@@H]3CCCN[C@@H]3C2)c(F)cc2c(=O)c(C(=O)O)cn(C3CC3)c12 [moxifloxacin, reference compound] | ~ 8 fold |  |  |  |  |  |  |  |  |  |  |  |
| O=c1ccc2ncc(=O)n3c2n1C[C@H]3CN1CCC(NCc2cc3c(cn2)OCCC3)CC1 [Gepotidacin] |  | only single-stranded breaks were observed | no double-stranded DNA cleavage was observed | all of the breaks created in the presence of gepotidacin were single-stranded | coordinate decrease in levels of double-stranded DNA cleavage | No double-stranded breaks were observed | ~ 2 fold | more than 30% | no double-stranded breaks were observed | no DNA cleavage was observed | > 4 h | ~ 95% |
